On the set-up of series [1]: method as in earlier work. To be noted: ref Roy Chowdhury U, Viker KB, Stoltz KL, et al. J Med Chem. 2016;59(13):6221-31; cited from earlier work.
Series [2] in a line: Tissue and fluid distribution after 90 days of daily topical CKLP1 (LC-MS/MS). Format: in vivo, Dutch-belted pigmented rabbits. To be noted: topical eye drops 10 mM CKLP1, 90 consecutive days. On the procedure: (§1) LC-MS/MS analysis of all fluids were performed using a Waters (Milford, MA) Acquity UPLC BEH C18 column (1.7 μm, 2.1 x 50 mm) with an Agilent EC-C18 pre-column (2.7 μm, 2.1 x 5 mm) and a gradient elution program containing ultra-pure water and acetonitrile with 2.5 mM ammonium formate, at a flow rate of 0.2 ml/min. Flavopiridol was used as an internal standard. The column and auto-sampler temperatures were maintained at 40°C and 4°C, respectively. Source parameters were capillary voltage, 2.6 kV; source temperature, 150°C; desolvation temperature, 500°C; cone gas flow, 150 L/h; and desolvation gas flow, 800 L/h. The cone voltages and collision energies for CKLP1, levcromakalim and flavopiridol were determined by MassLynx-Intellistart software, v4.1, and were 32, 34 and 72 V (cone) and 20, 14 and 30 eV (collision), respectively. The retention times were 4.5 minutes for CKLP1, 5.9 minutes for levcromakalim and 5.7 minutes for flavopiridol.
(§2) To validate accurate measurement of CKLP1 and levcromakalim, known concentrations of CKLP1 (5, 10, 25, 50, 100, 250, 500 ng/ml) and levcromakalim (1, 5, 10, 25, 50, 100, 250 ng/ml) were added to human plasma (obtained from the Mayo Clinic Division of Transfusion Medicine under an Institutional Review Board approved protocol) to make calibration curves. Quality control was determined for each run by using known quantities of CKLP1 and levcromakalim to verify that the instrument recorded values consistent with the established standard curve. The effect of carryover was evaluated by injecting blank samples before and after running the standard samples for calibration curves. Unknown samples with signal to noise ratios >10 were recorded as acceptable concentrations. Samples with signal to noise ratios <10 were reported as not detectable (ND). Controls consisted of a double blank (without analytes and internal standard) and a single blank (only internal standard). The linearity of the calibration curves was determined by plotting the ratios of analytes to internal standard peak areas. The curve was fitted by least squares regression with a 1/x weighting for both CKLP1 and levcromakalim. Data was collected from 3–6.4 minutes for CKLP1 and 4–8 minutes for both levcromakalim and flavopiridol. Waters MassLynx Intellistart software v4.1 was used for analysis.
(§3) All experiments with animals were pre-approved by the Institutional Animal Care and Use Committee of the Mayo Clinic, Rochester, MN and adhered to the recommendations in the Guide for the Care and use of Laboratory Animals of the National Institutes of Health, and the tenets of the ARVO Statement for the Use of Animals in Vision Research. Female Dutch-belted pigmented rabbits (age 7 months) were obtained from Covance Research Products, Inc. (Denver, PA). Rabbits were housed in pairs and kept in a climate controlled room with 12 h light and dark cycles. Animals had unrestrained access to water and standard rabbit food pellets at all times. Upon receipt, animals were acclimated for at least 5 days before initiation of the experiment. IOP was measured with a handheld rebound tonometer (Icare Tonovet, Colonial Medical Supply, Franconia, NH, USA) in conscious and minimally restrained, non-anesthetized rabbits as previously described. Briefly, daily IOP was calculated from the average of 3 independent IOP measurements at 3 different time points each day. These time points corresponded to 1 h, 4 h and 23 h post treatment on any given day. Rabbits that needed to be handled for IOP were subjected to sham IOP measurements for two days prior to initiation of experiment. Rabbits (n = 3) were injected intravenously through the right ear vein with CKLP1 as a bolus dose equal to 0.25 mg/kg body weight. Additional rabbits were treated topically through instillation of 50 μl eye drops of a 10 mM (4.1 mg/ml) solution of CKLP1 in sterile PBS. […]

Series [3] in a line: Concentration in aqueous and vitreous humor after topical CKLP1 for 1, 4 or 8 days (LC-MS/MS). The format is in vivo, Dutch-belted pigmented rabbits. Conditions: topical CKLP1 both eyes, days 1, 4 and 8, collected after the 24 h blood sample; for concentration at 24 h: female, Dutch-belted pigmented, rabbit. On the procedure: as §1, §2, §3
The nature of series [4]: Plasma pharmacokinetics after topical eye drops of CKLP1, days 1, 4 and 8 (LC-MS/MS). To be noted: for AUC(0-t) / Cmax / half-life / Tmax: female, Dutch-belted pigmented, rabbit, topical or ocular; for AUC(0-t) / Cmax / half-life / Tmax / Clast / Tlast: plasma; for Cmax: read-out: Cmax; for half-life: read-out: Half-life (converted); for Tmax: read-out: Tmax (converted). Format: in vivo, Dutch-belted pigmented rabbits. On the procedure: as §1, §2, §3

Series [5] can be described thus: Plasma pharmacokinetics after single intravenous injection of CKLP1 (LC-MS/MS). The format is in vivo, Dutch-belted pigmented rabbits. On the procedure:
as §1, §2, §3

Where [6] appears, read: eye drops 10 mM CKLP1 both eyes once daily, Day 4.
[7] abbreviates: eye drops 10 mM CKLP1 both eyes once daily, Day 8.
Where [8] appears, read: eye drops 10 mM CKLP1 both eyes, Day 1.
[9] abbreviates: rabbit, intravenous 0.25 mg/kg CKLP1.

SMILES strings stand for the structures. Where “and” joins values, the source holds several entries; their conditions need not be identical. Identical values can stand only once. Like-named read-outs stand apart in the source and are kept apart here. Where only a bound is given, the exact number is not on record here.

As to `CC1(C)Oc2ccc(C#N)cc2C(N2CCCC2=O)C1O` (stereo not drawn) [Cromakalim, cromakalim, reference compound], the Solubility in water entry in series [1] is “insoluble in water”.

For `CC1(C)Oc2ccc(C#N)cc2[C@@H](N2CCCC2=O)[C@@H]1O` [Levcromakalim, levcromakalim, reference compound], in series [2], the “Concentration in Brain” value is given as “not detected”; the “Concentration in Heart” value is on record as “not detected”; the “Concentration in Liver” value is 5.9 ± 4.3 (n = 4/6) ng/g; the “Concentration in Lung” value was 1.5 ± 0.0 ng/g and 1.5 ± 0.0 (n = 6/6) ng/g. In addition, in series [2], the “Concentration in Muscle” value is given as “not detected”, the “Concentration in Plasma” value is “no detectable levels”, the “Concentration in aqueous humor” value was 0.2 ± 0.1 (n = 4/6) ng/ml and the “Concentration in vitreous humor” value is 0.1 ± 0.0 (n = 3/6) ng/ml. In addition, in series [2] (listed as levcromakalim), the “Concentration in Liver” value was 5.9 ± 4.3 ng/g, the “Concentration in aqueous humor” value stood at 0.2 ± 0.1 ng/mL and the “Concentration in vitreous humor” value was determined as 0.1 ± 0.0 ng/mL. In series [3] (aqueous humor, read-out: Concentration in aqueous humor), the concentration at 24 h was below 0.3 ng/mL. In addition, the concentration at 24 h in series [3] (vitreous humor, read-out: Concentration in vitreous humor) was below 0.3 ng/mL. Further, in series [3], the “Concentration in aqueous humor” value was “low levels” and the “Concentration in vitreous humor” value was “low levels”. Further, in series [4] (setting [6]), the AUC(0-t) (commonly the area under the concentration-time curve up to a stated or last time point) came out at 10.9 ± 6 ng·h/mL; the Cmax (commonly the highest concentration seen after dosing) stood at 0.9 ± 0.7 ng/mL; the half-life (in general, the time needed for the level to fall by half in the phase considered) is 25.8 ± 13.7 h; the Tmax – broadly, the time from dosing to the highest level – was 3.33 h. In series [4] (setting [6]), this compound returned a Clast of 0.3 ± 0.1 ng/mL and a Tlast of 24.0 ± 0.0 h. For the same compound, in series [4] (setting [7]), the AUC(0-t) came to 10.2 ± 0.3 ng·h/mL, the Cmax came to 0.6 ± 0.3 ng/mL, the half-life was 12.2 ± 5.6 h and the Tmax was 2.33 h. Further, in series [4] (setting [7]), the Clast came to 0.2 ± 0.1 ng/mL and the Tlast is 18.7 ± 9.2 h. Moreover, in series [4] (setting [8]), the exposure AUC(0-t) is 6.1 ± 2 ng·h/mL, the Cmax amounted to 0.4 ± 0.1 ng/mL, the half-life was 13.2 ± 2.6 h and the Tmax is 6.67 h. Moreover, in series [4] (setting [8]), the Clast turned out to be 0.1 ± 0.1 ng/mL and the Tlast was found to be 24.0 ± 0.0 h. Moreover, the “Amount in plasma after topical CKLP1” value in series [4] (topical 10 mM CKLP1 in the eye) is given as “trace amounts”. Further, the AUC(0-t) in series [5] (female, Dutch-belted pigmented, rabbit, intravenous 0.25 mg/kg CKLP1) came out at 120 ± 93.7 ng·h/mL. In addition, the Cmax in series [5] (female, Dutch-belted pigmented, rabbit, intravenous 0.25 mg/kg CKLP1, read-out: Cmax) stood at 10.6 ± 1.2 ng/mL. The half-life in series [5] (female, Dutch-belted pigmented, rabbit, intravenous 0.25 mg/kg CKLP1, read-out: Half-life) stood at 1.42 ± 0.617 h. Also, in series [5] (female, Dutch-belted pigmented, rabbit, intravenous 0.25 mg/kg CKLP1, read-out: Tmax (converted)), the time of peak concentration (Tmax) was 1.02 h. For the same compound, the “Peak concentration (Cmax) of levcromakalim relative to CKLP1” value in series [5] (intravenous CKLP1, fold less than CKLP1) is around 200 fold. In series [5] (setting [9]), the Clast was 4.4 ± 4.3 ng/mL and the Tlast was 16.0 ± 8.9 h.

The values are drawn from article PMC7162492, “Pharmacological and pharmacokinetic profile of the novel ocular hypotensive prodrug CKLP1 in Dutch-belted pigmented rabbits” (PLoS ONE, 2020).
